Here are results for 68 sequences from the supplement of paper PMC11208160.

The nature of this series: recombinant UMI read abundance after kanamycin selection (control-corrected) (log10(CPM+1)); higher = more efficient recombination; extreme values may be limits of the assay; sequences stand for … in AGTGCAGAGAAAATCGGCCAGTTTTCTCTGCCTGCAGTCCGCATGCCGTGGGACCCCTTGGGTTCTAACCTGTTGCCTAGATTTATGCAGCGGACTGCCTTTCTCCCAAAGTGATAAACCGG…AGGTTGGTTTCACT; site = the 11-nt donor. In outline:
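Values are reported as log10(CPM+1), obtained by converting sequencing counts to CPM, averaging replicates and scaling by control-derived factors. The counts came from recombinant UMIs amplified by PCR across the donor–target junction. These UMIs came from a pooled Escherichia coli screen of donor and donor-binding-loop pairs for the IS621 bridge recombinase, plated with IPTG (0.07 mM) plus kanamycin or left unselected, in two replicates each.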
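Note: IS621 bridge recombinase in Escherichia coli cells against a fixed T5 target plasmid.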

As to “CAAGCGCCATGGACCGGTTTTCCCGGTAATCCGTATTTGCG (site CAAGCGCCTCC)”, the “recombinant UMI read abundance (log10)” value was 0.0171.
Regarding “CAAGCGCCATGGACCGGTTTTCCCGGTAATCCGTATTTGCG (site CAAGCGCCTCG)”, the “recombinant UMI read abundance (log10)” value was 2.05.
The value for “CAAGCGCCATGGACCGGTTTTCCCGGTAATCCGTATTTGCG (site CAAGCGCCTCT)” was 0.00392; that for “CAAGCGCCATGGACCGGTTTTCCCGGTAATCCGTATTTGTC (site CAAGCGCCTAA)” was 0.486; that for “CAAGCGCCATGGACCGGTTTTCCCGGTAATCCGTATTTGTC (site CAAGCGCCTCA)” was 0.42.
Next, “CAAGCGCCATGGACCGGTTTTCCCGGTAATCCGTATTTGTC (site CAAGCGCCTGA)”: 2.51.
“CAAGCGCCATGGACCGGTTTTCCCGGTAATCCGTATTTGTC (site CAAGCGCCTTA)”: the “recombinant UMI read abundance (log10)” value came to 0.529.
Next, “CAAGCGGCATGGACCGGTTTTCCCGGTAATCCGTATTTGTG (site CAAGCGACTCA)”: 1.37; “CAAGCGGCATGGACCGGTTTTCCCGGTAATCCGTATTTGTG (site CAAGCGCCTCA)”: 0.00533.
The value for “CAAGCGGCATGGACCGGTTTTCCCGGTAATCCGTATTTGTG (site CAAGCGGCTCA)” was 0.904; that for “CAAGCGGCATGGACCGGTTTTCCCGGTAATCCGTATTTGTG (site CAAGCGTCTCA)” was 1.66; that for “CAAGTAACATGGACCGGTTTTCCCGGTAATCCGTATTTGGG (site CAAGTAACTCC)” was 1.53.
The value for “CAAGTAACATGGACCGGTTTTCCCGGTAATCCGTATTTGGG (site CAAGTCACTCC)” was 0.0125; that for “CAAGTAACATGGACCGGTTTTCCCGGTAATCCGTATTTGGG (site CAAGTGACTCC)” was 0.0247.
Consider “CAAGTAACATGGACCGGTTTTCCCGGTAATCCGTATTTGGG (site CAAGTTACTCC)”, for which the “recombinant UMI read abundance (log10)” value stood at 0.237.
The value for “CAAGTCACATGGACCGGTTTTCCCGGTAATCCGTATTTGCG (site CAAGTCACTCA)” was 1.27.
With “CAAGTCACATGGACCGGTTTTCCCGGTAATCCGTATTTGCG (site CAAGTCACTCC)”, the “recombinant UMI read abundance (log10)” value was 0.632.
Next, “CAAGTCACATGGACCGGTTTTCCCGGTAATCCGTATTTGCG (site CAAGTCACTCG)”: 2.34; “CAAGTCACATGGACCGGTTTTCCCGGTAATCCGTATTTGCG (site CAAGTCACTCT)”: 1.63.
“CAAGTCACATGGACCGGTTTTCCCGGTAATCCGTATTTGGG (site AAAGTCACTCC)”: the “recombinant UMI read abundance (log10)” value is 0.0232.
The value for “CAAGTCACATGGACCGGTTTTCCCGGTAATCCGTATTTGGG (site CAAATCACTCC)” was 0.0224; that for “CAAGTCACATGGACCGGTTTTCCCGGTAATCCGTATTTGGG (site CAACTCACTCC)” was 0.177; that for “CAAGTCACATGGACCGGTTTTCCCGGTAATCCGTATTTGGG (site CAAGACACTCC)” was 0.0192.
In the case of “CAAGTCACATGGACCGGTTTTCCCGGTAATCCGTATTTGGG (site CAAGCCACTCC)”, the “recombinant UMI read abundance (log10)” value was 0.239.
As to “CAAGTCACATGGACCGGTTTTCCCGGTAATCCGTATTTGGG (site CAAGGCACTCC)”, the “recombinant UMI read abundance (log10)” value came out at 0.0072.
Next, “CAAGTCACATGGACCGGTTTTCCCGGTAATCCGTATTTGGG (site CAAGTAACTCC)”: 0.0617; “CAAGTCACATGGACCGGTTTTCCCGGTAATCCGTATTTGGG (site CAAGTCACTAC)”: 0.0634.
Next, “CAAGTCACATGGACCGGTTTTCCCGGTAATCCGTATTTGGG (site CAAGTCACTCA)”: 0.0308.
Next, “CAAGTCACATGGACCGGTTTTCCCGGTAATCCGTATTTGGG (site CAAGTCACTCC)”: 0.013; “CAAGTCACATGGACCGGTTTTCCCGGTAATCCGTATTTGGG (site CAAGTCACTCG)”: 0.
As for “CAAGTCACATGGACCGGTTTTCCCGGTAATCCGTATTTGGG (site CAAGTCACTCT)”, the “recombinant UMI read abundance (log10)” value is 0.593.
Next, “CAAGTCACATGGACCGGTTTTCCCGGTAATCCGTATTTGGG (site CAAGTCACTGC)”: 0; “CAAGTCACATGGACCGGTTTTCCCGGTAATCCGTATTTGGG (site CAAGTCACTTC)”: 0.00273.
Take “CAAGTCACATGGACCGGTTTTCCCGGTAATCCGTATTTGGG (site CAAGTCCCTCC)”: the “recombinant UMI read abundance (log10)” value is 0.0287.
As to “CAAGTCACATGGACCGGTTTTCCCGGTAATCCGTATTTGGG (site CAAGTCGCTCC)”, the “recombinant UMI read abundance (log10)” value is 0.0204.
Next, “CAAGTCACATGGACCGGTTTTCCCGGTAATCCGTATTTGGG (site CAAGTCTCTCC)”: 0.493; “CAAGTCACATGGACCGGTTTTCCCGGTAATCCGTATTTGGG (site CAAGTGACTCC)”: 0.0398.
Regarding “CAAGTCACATGGACCGGTTTTCCCGGTAATCCGTATTTGGG (site CAAGTTACTCC)”, the “recombinant UMI read abundance (log10)” value was 0.161.
The value for “CAAGTCACATGGACCGGTTTTCCCGGTAATCCGTATTTGGG (site CAATTCACTCC)” was 0.0165; that for “CAAGTCACATGGACCGGTTTTCCCGGTAATCCGTATTTGGG (site CACGTCACTCC)” was 0.
Next, “CAAGTCACATGGACCGGTTTTCCCGGTAATCCGTATTTGGG (site CAGGTCACTCC)”: 0.0212; “CAAGTCACATGGACCGGTTTTCCCGGTAATCCGTATTTGGG (site CATGTCACTCC)”: 0.0038; “CAAGTCACATGGACCGGTTTTCCCGGTAATCCGTATTTGGG (site CCAGTCACTCC)”: 0.0443.
Next, “CAAGTCACATGGACCGGTTTTCCCGGTAATCCGTATTTGGG (site CGAGTCACTCC)”: 0.00994.
As to “CAAGTCACATGGACCGGTTTTCCCGGTAATCCGTATTTGGG (site CTAGTCACTCC)”, the “recombinant UMI read abundance (log10)” value turned out to be 0.0139.
The value for “CAAGTCACATGGACCGGTTTTCCCGGTAATCCGTATTTGGG (site GAAGTCACTCC)” was 0.0173; that for “CAAGTCACATGGACCGGTTTTCCCGGTAATCCGTATTTGGG (site TAAGTCACTCC)” was 0.0086.
Next, “CAAGTCGCATGGACCGGTTTTCCCGGTAATCCGTATTTGGT (site CAAGTCGCTAC)”: 1.77; “CAAGTGCCATGGACCGGTTTTCCCGGTAATCCGTATTTGTA (site CAAGTGCCTTA)”: 1.56; “CAAGTTACATGGACCGGTTTTCCCGGTAATCCGTATTTGGG (site CAAGTAACTCC)”: 0.277.
As for “CAAGTTACATGGACCGGTTTTCCCGGTAATCCGTATTTGGG (site CAAGTCACTCC)”, the “recombinant UMI read abundance (log10)” value turned out to be 0.252.
Take “CAAGTTACATGGACCGGTTTTCCCGGTAATCCGTATTTGGG (site CAAGTGACTCC)”: the “recombinant UMI read abundance (log10)” value turned out to be 0.0286.
Next, “CAAGTTACATGGACCGGTTTTCCCGGTAATCCGTATTTGGG (site CAAGTTACTCC)”: 0.861.
The value for “CAATCATCATGGACCGGTTTTCCCGGTAATCCGTATTTGAT (site CAATCATCTAT)” was 0.435; that for “CAATCATCATGGACCGGTTTTCCCGGTAATCCGTATTTGAT (site CGATCATCTAG)” was 0; that for “CAATCATCATGGACCGGTTTTCCCGGTAATCCGTATTTGCC (site CAATCATCTGG)” was 0.733.
Next, “CAATCATCATGGACCGGTTTTCCCGGTAATCCGTATTTGCC (site CGATCATCTAG)”: 0; “CAATCCTCATGGACCGGTTTTCCCGGTAATCCGTATTTGCC (site CAATCCTCTGG)”: 1.54; “CAATCCTCATGGACCGGTTTTCCCGGTAATCCGTATTTGCC (site CACTCCTCTGG)”: 1.14.
On to “CAATCCTCATGGACCGGTTTTCCCGGTAATCCGTATTTGCC (site CAGTCCTCTGG)”, for which the “recombinant UMI read abundance (log10)” value stood at 0.
Next, “CAATCCTCATGGACCGGTTTTCCCGGTAATCCGTATTTGCC (site CATTCCTCTGG)”: 0.913; “CAATCGGCATGGACCGGTTTTCCCGGTAATCCGTATTTGAC (site CAATCGGCTGT)”: 1.77; “CAATCTCCATGGACCGGTTTTCCCGGTAATCCGTATTTGCC (site CAATCTCCTGG)”: 0.
The value for “CAATGATCATGGACCGGTTTTCCCGGTAATCCGTATTTGAA (site CAATGATCTTT)” was 3.01.
Next, “CAATGATCATGGACCGGTTTTCCCGGTAATCCGTATTTGAA (site CAATGCTCTTT)”: 0.0913; “CAATGATCATGGACCGGTTTTCCCGGTAATCCGTATTTGAA (site CAATGGTCTTT)”: 0.41; “CAATGATCATGGACCGGTTTTCCCGGTAATCCGTATTTGAA (site CAATGTTCTTT)”: 0.682.
For “CAATGATCATGGACCGGTTTTCCCGGTAATCCGTATTTGCT (site CAATGATCTAG)”, the “recombinant UMI read abundance (log10)” value came out at 2.19.
